In ChEMBL document CHEMBL1151469, “Cytotoxic activity of N-chlorotaurine on Acanthamoeba spp” (Antimicrob Agents Chemother, 2008):
The source made the active and inactive calls. No cut-off for these calls is given here.

Assays:
[1] = test system: Acanthamoeba hatchetti; assay: Amoebicidal activity against Trophozoites of Acanthamoeba hatchetti 11DS assessed as increase in reduction in cell count at 20 mM in peptone yeast extract glucose medium at pH 7 after 6 hrs by hemocytometer using trypan blue stain in presence of 68 mM ammonium chloride; assay type: functional, organism-based
[2] = test system: Acanthamoeba hatchetti; assay: Amoebicidal activity against Trophozoites of Acanthamoeba hatchetti 11DS assessed as log reduction in cell count at 10 mM in phosphate buffered saline after 24 hrs by hemocytometer using trypan blue staining; assay type: functional, organism-based
[3] = test system: Acanthamoeba hatchetti; assay: Amoebicidal activity against Trophozoites of Acanthamoeba hatchetti 11DS in peptone yeast extract glucose medium at pH 7 after 24 hrs by hemocytometer using trypan blue stain; assay type: functional, organism-based
[4] = test system: Acanthamoeba hatchetti; assay: Amoebicidal activity against Trophozoites of Acanthamoeba hatchetti 11DS assessed as increase in reduction in cell count at 20 mM in peptone yeast extract glucose medium at pH 7 after 6 hrs by hemocytometer using trypan blue stain in presence of 580 mM ammonium chloride; assay type: functional, organism-based
[5] = test system: Acanthamoeba polyphaga; assay: Amoebicidal activity against excysted trophozoites of Acanthamoeba polyphaga 5SU at 55 mM in peptone yeast extract glucose medium after 24 hrs by hemocytometer using trypan blue stain; assay type: functional
[6] = test system: Acanthamoeba polyphaga; assay: Amoebicidal activity against Trophozoites of Acanthamoeba polyphaga 5SU assessed as killing time at 20 mM in peptone yeast extract glucose medium at pH 7 by hemocytometer using trypan blue stain; assay type: functional
[7] = test system: Acanthamoeba castellanii; assay: Amoebicidal activity against Trophozoites of Acanthamoeba castellanii 4CL assessed as killing time at 20 mM in peptone yeast extract glucose medium at pH 7 by hemocytometer using trypan blue stain; assay type: functional
[8] = test system: Acanthamoeba hatchetti; assay: Amoebicidal activity against excysted trophozoites of Acanthamoeba hatchetti 11DS at 55 mM in peptone yeast extract glucose medium after 6 days by hemocytometer using trypan blue stain; assay type: functional
[9] = test system: Acanthamoeba polyphaga; assay: Amoebicidal activity against Trophozoites of Acanthamoeba polyphaga 5SU in phosphate buffered saline at pH 7 after 24 hrs by hemocytometer using trypan blue stain; assay type: functional, organism-based
[10] = test system: Acanthamoeba hatchetti; assay: Amoebicidal activity against Trophozoites of Acanthamoeba hatchetti 11DS assessed as reduction in cell count at 10 mM in phosphate buffered saline at pH 7 within 1 hr by hemocytometer using trypan blue stain in presence of 290 mM ammonium chloride; assay type: functional, organism-based
[11] = test system: Acanthamoeba polyphaga; assay: Amoebicidal activity against excysted trophozoites of Acanthamoeba polyphaga 5SU at 55 mM in peptone yeast extract glucose medium after 4 days by hemocytometer using trypan blue stain; assay type: functional
[12] = test system: Acanthamoeba castellanii; assay: Amoebicidal activity against excysted trophozoites of Acanthamoeba castellanii 4CL at 55 mM in peptone yeast extract glucose medium after 6 days by hemocytometer using trypan blue stain; assay type: functional
[13] = test system: Acanthamoeba polyphaga; assay: Amoebicidal activity against Trophozoites of Acanthamoeba polyphaga 5SU assessed as log reduction in cell count at 10 mM in phosphate buffered saline at pH 7 after 6 hrs by hemocytometer using trypan blue staining; assay type: functional, organism-based
[14] = test system: Acanthamoeba polyphaga; assay: Amoebicidal activity against Trophozoites of Acanthamoeba polyphaga 5SU assessed as log reduction in cell count at 10 mM in phosphate buffered saline at pH 5 after 1 hr by hemocytometer using trypan blue stain in presence of 160 mM beta-alanine; assay type: functional, organism-based
[15] = test system: Acanthamoeba hatchetti; assay: Amoebicidal activity against Trophozoites of Acanthamoeba hatchetti 11DS in peptone yeast extract glucose medium at pH 7 after 6 hrs by hemocytometer using trypan blue stain; assay type: functional, organism-based
[16] = test system: Acanthamoeba polyphaga; assay: Amoebicidal activity against Trophozoites of Acanthamoeba polyphaga 5SU assessed as log reduction in cell count at 10 mM in phosphate buffered saline at pH 7 after 6 hrs by hemocytometer using trypan blue stain; assay type: functional
[17] = test system: Acanthamoeba polyphaga; assay: Amoebicidal activity against Trophozoites of Acanthamoeba polyphaga 5SU assessed as reduction killing time at 55 mM in phosphate buffered saline at pH 7 by hemocytometer using trypan blue stain; assay type: functional, organism-based
[18] = test system: Acanthamoeba castellanii; assay: Amoebicidal activity against excysted trophozoites of Acanthamoeba castellanii 4CL at 55 mM in peptone yeast extract glucose medium after 11 days by hemocytometer using trypan blue stain; assay type: functional
[19] = test system: Acanthamoeba hatchetti; assay: Amoebicidal activity against Trophozoites of Acanthamoeba hatchetti 11DS in peptone yeast extract glucose medium at pH 7 after 24 hrs by hemocytometer using trypan blue stain in presence of 68 mM ammonium chloride; assay type: functional, organism-based
[20] = test system: Acanthamoeba hatchetti; assay: Amoebicidal activity against Trophozoites of Acanthamoeba hatchetti 11DS assessed as complete loss of viability at 55 mM in phosphate buffered saline after 24 hrs by hemocytometer using trypan blue stain in presence of 190 mM ammonium chloride; assay type: functional, organism-based
[21] = test system: Acanthamoeba castellanii; assay: Amoebicidal activity against Trophozoites of Acanthamoeba castellanii 4CL assessed as killing time at 10 mM in phosphate buffered saline at pH 7 by hemocytometer using trypan blue stain; assay type: functional
[22] = test system: Acanthamoeba hatchetti; assay: Amoebicidal activity against Trophozoites of Acanthamoeba hatchetti 11DS assessed as log reduction in cell count at 20 mM in peptone yeast extract glucose medium at pH 7 after 24 hrs by hemocytometer using trypan blue stain; assay type: functional
[23] = test system: Acanthamoeba castellanii; assay: Amoebicidal activity against Trophozoites of Acanthamoeba castellanii 40AB assessed as log reduction in cell count at 20 mM in peptone yeast extract glucose medium at pH 7 after 24 hrs by hemocytometer using trypan blue stain; assay type: functional
[24] = test system: Acanthamoeba polyphaga; assay: Amoebicidal activity against excysted trophozoites of Acanthamoeba polyphaga 5SU at 55 mM in peptone yeast extract glucose medium after 11 days by hemocytometer using trypan blue stain; assay type: functional
[25] = test system: Acanthamoeba polyphaga; assay: Amoebicidal activity against Trophozoites of Acanthamoeba polyphaga 5SU in peptone yeast extract glucose medium at pH 7 after 6 hrs by hemocytometer using trypan blue stain; assay type: functional, organism-based
[26] = test system: Acanthamoeba hatchetti; assay: Amoebicidal activity against excysted trophozoites of Acanthamoeba hatchetti 11DS at 55 mM in peptone yeast extract glucose medium after 24 hrs by hemocytometer using trypan blue stain; assay type: functional
[27] = test system: Acanthamoeba hatchetti; assay: Amoebicidal activity against Trophozoites of Acanthamoeba hatchetti 11DS assessed as killing time at 0.16 M in peptone yeast extract glucose medium at pH 7 by hemocytometer using trypan blue stain; assay type: functional
[28] = test system: Acanthamoeba polyphaga; assay: Amoebicidal activity against Trophozoites of Acanthamoeba polyphaga 5SU assessed as rounding of cells at 55 mM in phosphate buffered saline at pH 7 after 15 mins by hemocytometer using trypan blue stain in presence of 190 mM ammonium chloride; assay type: functional, organism-based
[29] = test system: Acanthamoeba hatchetti; assay: Amoebicidal activity against Trophozoites of Acanthamoeba hatchetti 11DS in phosphate buffered saline at pH 7 after 1 hr by hemocytometer using trypan blue stain; assay type: functional, organism-based
[30] = test system: Acanthamoeba polyphaga; assay: Amoebicidal activity against Trophozoites of Acanthamoeba polyphaga 5SU in phosphate buffered saline at pH 7 after 6 hrs by hemocytometer using trypan blue stain in presence of 34 mM ammonium chloride; assay type: functional, organism-based
[31] = test system: Acanthamoeba polyphaga; assay: Amoebicidal activity against Trophozoites of Acanthamoeba polyphaga 5SU assessed as killing time at 10 mM in phosphate buffered saline at pH 7 by hemocytometer using trypan blue stain; assay type: functional
[32] = test system: Acanthamoeba castellanii; assay: Amoebicidal activity against excysted trophozoites of Acanthamoeba castellanii 40AB at 55 mM in peptone yeast extract glucose medium after 4 days by hemocytometer using trypan blue stain; assay type: functional
[33] = test system: Acanthamoeba polyphaga; assay: Amoebicidal activity against Trophozoites of Acanthamoeba polyphaga 5SU in peptone yeast extract glucose medium at pH 7 after 24 hrs by hemocytometer using trypan blue stain in presence of 68 mM ammonium chloride; assay type: functional, organism-based
[34] = test system: Acanthamoeba polyphaga; assay: Amoebicidal activity against excysted trophozoites of Acanthamoeba polyphaga 5SU at 55 mM in peptone yeast extract glucose medium after 6 days by hemocytometer using trypan blue stain; assay type: functional
[35] = test system: Acanthamoeba polyphaga; assay: Amoebicidal activity against Trophozoites of Acanthamoeba polyphaga 5SU assessed as rounding of the cells at 55 mM in peptone yeast extract glucose medium at pH 7 after 30 mins by hemocytometer using trypan blue stain; assay type: functional, organism-based

In the case of O=S(=O)(O)CCNCl, the Activity [1] is reported as “Active”, the Activity [2] is reported as “Active” and the EC50 [3] is reported as 7.38 mM. For the same molecule, the Activity [4] was “inactive”, the Activity [5] was 1000 and the Activity [6] was 36 h. For the same molecule, the Activity [7] was 36 h, the Activity [8] was 210000 and the EC50 [9] was 3.47 mM. The EC90 [9] was 7.38 mM, the Activity [10] was “Active” and the Activity [11] was 8000. The Activity [12] was 7200, the Activity [13] was “Active” and the Activity [14] was “Active”. For the same molecule, the EC50 [15] was 9.15 mM, the Activity [16] was 2 and the Activity [17] was “Active”. The Activity [18] was 100000, the EC50 [19] was 10.2 mM and the Activity [20] was “Active”. The Activity [21] was 36 h, the Activity [22] was 2 and the Activity [23] was 2. For the same molecule, the Activity [24] was 200000, the EC50 [25] was 11.7 mM and the Activity [26] was 4600. The Activity [27] was 1 h, the Activity [28] was “Active” and the EC50 [29] was 15.5 mM. For the same molecule, the EC50 [30] was 5 mM, the EC90 [30] was 9.08 mM and the Activity [31] was 15 h. It also gave an Activity [32] of 13000, an EC50 [33] of 10.2 mM and an Activity [34] of 18000. For the same molecule, the Activity [35] was “Active”.
